Here are results for 31 molecules from ChEMBL document CHEMBL1132393, “Structure-activity relationships of a novel class of Src SH2 inhibitors” (Bioorg Med Chem Lett, 1999).

The target of the assay is Proto-oncogene tyrosine-protein kinase Src (Homo sapiens, UniProt P12931). Nature of the assay: Binding affinity against Src-homology 2 (SRC SH2).
Sequence of Proto-oncogene tyrosine-protein kinase Src (P12931 2-536 limits assumed): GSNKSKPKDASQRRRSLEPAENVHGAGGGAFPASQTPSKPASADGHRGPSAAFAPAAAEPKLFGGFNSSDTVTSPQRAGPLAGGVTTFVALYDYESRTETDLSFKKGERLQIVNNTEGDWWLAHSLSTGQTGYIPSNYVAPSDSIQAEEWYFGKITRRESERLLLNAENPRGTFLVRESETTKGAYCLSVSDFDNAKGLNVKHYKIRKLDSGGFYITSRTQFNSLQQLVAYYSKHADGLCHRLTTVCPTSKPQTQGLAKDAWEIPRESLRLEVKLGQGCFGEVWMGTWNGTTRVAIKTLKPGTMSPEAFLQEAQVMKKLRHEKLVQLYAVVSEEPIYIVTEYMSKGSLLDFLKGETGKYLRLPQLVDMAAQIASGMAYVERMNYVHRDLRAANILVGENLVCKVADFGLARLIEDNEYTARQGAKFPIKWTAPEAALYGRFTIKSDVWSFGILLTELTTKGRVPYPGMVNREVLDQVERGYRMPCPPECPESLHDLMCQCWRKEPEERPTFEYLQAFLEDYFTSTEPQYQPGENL
Turning to `CCCCCCCc1noc([C@H](Cc2c[nH]c3ccccc23)NC(=O)[C@H](Cc2ccc(OP(=O)(O)O)cc2)NC(C)=O)n1`, the IC50 turned out to be 35 µM.

Molecule `CCCCCCc1cnc([C@H](Cc2c[nH]c3ccccc23)NC(=O)[C@H](Cc2ccc(OP(=O)(O)O)cc2)NC(C)=O)s1` yielded an IC50 of 14 µM. The molecule `CCCCc1noc([C@H](CCC(N)=O)NC(=O)[C@H](Cc2ccc(OP(=O)(O)O)cc2)NC(C)=O)n1` gave an IC50 of 384 µM.

The molecule `CC(=O)N[C@@H](Cc1ccc(OP(=O)(O)O)cc1)C(=O)N[C@@H](CCC(=O)O)c1nc(CC(C)C)cs1` returned an IC50 of 218 µM. This IC50 lies about 1.8-fold lower than the previous one.

`CCCCCCc1noc([C@H](CCC(=O)O)NC(=O)[C@H](Cc2ccc(OP(=O)(O)O)cc2)NC(C)=O)n1` gave an IC50 of 8 µM. In the case of `CC(=O)N[C@@H](Cc1ccc(OP(=O)(O)O)cc1)C(=O)N[C@@H](CCC(=O)O)c1ncc(CC2CCCCC2)s1`, the IC50 stood at 16 µM. In the case of `CC(=O)N[C@@H](Cc1ccc(OP(=O)(O)O)cc1)C(=O)N[C@@H](CCC(=O)O)c1nc(CC2CCCCC2)cs1`, the IC50 is 26 µM. This IC50 is about 1.6-fold higher than that of the molecule before.

Consider `CC(=O)N[C@@H](Cc1ccc(OP(=O)(O)O)cc1)C(=O)NCc1nc(CC2CCCCC2)cs1`, for which the IC50 amounted to 483 µM. Then `CCCCCCc1noc([C@H](CC)NC(=O)[C@H](Cc2ccc(OP(=O)(O)O)cc2)NC(C)=O)n1`, with 25 µM. Then `CC(=O)N[C@@H](Cc1ccc(OP(=O)(O)O)cc1)C(=O)N[C@@H](CCC(=O)O)c1nc(Cc2ccccc2)no1`, with 92 µM.

Molecule `CC(=O)N[C@@H](Cc1ccc(OP(=O)(O)O)cc1)C(=O)N[C@@H](CCC(=O)O)c1nc(CCC(C)C)no1` displayed an IC50 of 61 µM.

`CC(=O)N[C@@H](Cc1ccc(OP(=O)(O)O)cc1)C(=O)N[C@@H](Cc1c[nH]c2ccccc12)c1nc(CC2CCCCC2)no1` yielded an IC50 of 62 µM. In the case of `CC(=O)N[C@@H](Cc1ccc(OP(=O)(O)O)cc1)C(=O)N[C@@H](Cc1c[nH]c2ccccc12)c1nc(CCC(C)C)no1` it was 33 µM. In the case of `CC(=O)N[C@@H](Cc1ccc(OP(=O)(O)O)cc1)C(=O)N[C@@H](CCC(N)=O)c1nc(CC2CCCCC2)no1` it was 278 µM; in that of `CCCCCCc1noc([C@H](Cc2c[nH]c3ccccc23)NC(=O)[C@H](Cc2ccc(OP(=O)(O)O)cc2)NC(C)=O)n1`, 16 µM; in that of `CCCCCCCc1noc([C@H](CC)NC(=O)[C@H](Cc2ccc(OP(=O)(O)O)cc2)NC(C)=O)n1`, 22 µM. In the case of `CCCCCc1noc([C@H](CC)NC(=O)[C@H](Cc2ccc(OP(=O)(O)O)cc2)NC(C)=O)n1` it was 65 µM; in that of `CC(=O)N[C@@H](Cc1ccc(OP(=O)(O)O)cc1)C(=O)N[C@@H](Cc1c[nH]c2ccccc12)c1nc(Cc2ccccc2)no1`, 25 µM. Turning to `CC[C@H](NC(=O)[C@H](Cc1ccc(OP(=O)(O)O)cc1)NC(C)=O)c1nc(CCC(C)C)no1`, the IC50 is 111 µM. Then `CCCCCCCc1noc([C@H](CCC(=O)O)NC(=O)[C@H](Cc2ccc(OP(=O)(O)O)cc2)NC(C)=O)n1`, with 7 µM. In the case of `CC(=O)N[C@@H](Cc1ccc(OP(=O)(O)O)cc1)C(=O)N[C@@H](CCC(=O)O)c1nc(CC(C)C)no1` it was 166 µM; in that of `CCCCCCc1noc([C@H](CCC(N)=O)NC(=O)[C@H](Cc2ccc(OP(=O)(O)O)cc2)NC(C)=O)n1`, 24 µM; in that of `CC(=O)N[C@@H](Cc1ccc(OP(=O)(O)O)cc1)C(=O)N[C@@H](Cc1c[nH]c2ccccc12)c1nc(CCCC(C)C)no1`, 89 µM. In the case of `CCCCCCc1cnc([C@H](CC)NC(=O)[C@H](Cc2ccc(OP(=O)(O)O)cc2)NC(C)=O)s1` it was 12 µM; in that of `CC(=O)N[C@@H](Cc1ccc(OP(=O)(O)O)cc1)C(=O)NCc1nc(CC2CCCCC2)no1`, 896 µM; in that of `CC(=O)N[C@@H](Cc1ccc(OP(=O)(O)O)cc1)C(=O)N[C@@H](CCC(=O)O)c1nc(CC2CCCCC2)no1`, 29 µM. In the case of `CC(=O)N[C@@H](Cc1ccc(OP(=O)(O)O)cc1)C(=O)N[C@@H](CCC(N)=O)c1nc(CCC(C)C)no1`, the IC50 was determined as 320 µM. In the case of `CCCCCc1noc([C@H](Cc2c[nH]c3ccccc23)NC(=O)[C@H](Cc2ccc(OP(=O)(O)O)cc2)NC(C)=O)n1` it was 36 µM.

The molecule `CC(=O)N[C@@H](Cc1ccc(OP(=O)(O)O)cc1)C(=O)N[C@@H](Cc1c[nH]c2ccccc12)c1nc(Cc2cccc3ccccc23)no1` registered an IC50 of 279 µM. Molecule `CCCCCc1noc([C@H](CCC(=O)O)NC(=O)[C@H](Cc2ccc(OP(=O)(O)O)cc2)NC(C)=O)n1` showed an IC50 of 21 µM. Compared with the last molecule, the IC50 is about 13-fold lower. `CC(=O)N[C@@H](Cc1ccc(OP(=O)(O)O)cc1)C(=O)N[C@@H](CCC(=O)O)c1nc(CCC(C)C)cs1` registered an IC50 of 76 µM. Compared with the last molecule, the IC50 is about 3.6-fold higher.

Usually IC50 stands for the concentration needed to halve the response being measured. Read a low IC50 as greater potency.
